Measurements published in patent EP2951180B1, “2,6,7,8 SUBSTITUTED PURINES AS HDM2 INHIBITORS” (Merck Sharp & Dohme Corp., priority 2013, dated 2014).

molecular target: T1, HDM2 (Homo sapiens, UniProt Q00987); assay: FRET assay (HDM2 inhibition; method not described in this part); assay type: binding; settings: Table 1
T1 construct: Thioredoxin (N); made in house; host or cells: E. coli strain BL21(DE3)Rosetta
T1 sequence (Q00987 17-125): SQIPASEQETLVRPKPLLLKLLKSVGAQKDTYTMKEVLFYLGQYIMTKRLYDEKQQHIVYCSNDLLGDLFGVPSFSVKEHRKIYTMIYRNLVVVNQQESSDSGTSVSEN

| Structure (SMILES) | IC50 [µM] |
| --- | --- |
| C[C@@H](Nc1nc(C(=O)O)nc2nc(-c3cc(C4CCC4)ccn3)n(Cc3ccc(C(F)(F)F)c(F)c3)c12)C1CCC1 [Example 1.78, 6-{[(1R)-1-cyclobutylethyl]amino}-8-(4-cyclobutylpyridin-2-yl)-7-[3-fluoro-4-(trifluoromethyl)benzyl]-7H-purine-2-carboxylic acid] | 0.00925 |
| C[C@@H](Nc1nc(C(=O)O)nc2nc(-c3cc4ccccc4cn3)n(Cc3ccc(C(F)(F)F)cc3)c12)C1CCC1 [Example 1.62, 6-{[(1R)-1-cyclobutylethyl]amino}-8-isoquinolin-3-yl-7-[4-(trifluoromethyl)benzyl] - 7H-purine-2-carboxylic acid] | 0.0458 |
| Cc1cnc(-c2nc3nc(C(=O)O)nc(N[C@H](C)C4CCC4)c3n2Cc2ccc(OC(F)(F)F)c(F)c2)cc1C(C)C [Example 1.90, 6-{[(1R)-1-cyclobutylethyl]amino}-7-[3-fluoro-4-(trifluoromethoxy)benzyl]-8-[5-methyl-4-(1-methylethyl)pyridin-2-yl]-7H-purine-2-carboxylic acid] | 0.0247 |
| C[C@@H](Nc1nc(C(=O)O)nc2nc(-c3cc(C(C)(C)C)cc(C(C)(C)C)c3)n(Cc3ccc(C(F)(F)F)cc3)c12)C1CCC1 [Example 1.128, 6-{[(1R)-1-cyclobutylethyl]amino}-8-(3,5-di-tert-butylphenyl)-7-[4-(trifluoromethyl)benzyl]-7H-purine-2-carboxylic acid] | 0.225 |
| CC(C)c1ccnc(-c2nc3nc(C(=O)O)nc(N[C@H](C)C4CCC4)c3n2Cc2ccc(C(F)(F)F)s2)c1 [Example 1.7, 6-{[(1R)-1-cyclobutylethyl]amino}-8-[4-(propan-2-yl)pyridin-2-yl]-7-{[5-(trifluoromethyl)thiophen-2-yl]methyl}-7H-purine-2-carboxylic acid] | 0.0269 |
| COc1ccc(-c2nc3nc(C(=O)O)nc(N[C@H](C)C4CCC4)c3n2Cc2ccc(C(F)(F)F)cc2)cc1F [Example 1.104, 6-{[(1R)-1-cyclobutylethyl]amino}-8-(3-fluoro-4-methoxyphenyl)-7-[4-(trifluoromethyl)benzyl]-7H-purine-2-carboxylic acid] | 0.0174 |
| C[C@@H](Nc1nc(C(=O)O)nc2nc(-c3cccc(Nc4ccccc4)c3)n(Cc3ccc(C(F)(F)F)cc3)c12)C1CCC1 [Example 1.130, 6-{[(1R)-1-cyclobutylethyl]amino}-8-[3-(phenylamino)phenyl]-7-[4-(trifluoromethyl)benzyl]-7H-purine-2-carboxylic acid] | 0.0763 |
| Cc1ccnc(-c2nc3nc(C(=O)O)nc(N[C@H](C)C4CCC4)c3n2Cc2ccc(C(F)(F)F)cc2)c1F [Example 1.82, 6-{[(1R)-1-cyclobutylethyl]amino}-8-(3-fluoro-4-methylpyridin-2-yl)-7-[4-(trifluoromethyl)benzyl]-7H-purine-2-carboxylic acid] | 0.049 |

same assay, conditions: Table 2

| Structure (SMILES) | IC50 [µM] |
| --- | --- |
| C[C@@H](Nc1nc(C(=O)O)nc2nc(-c3cccc(C(F)(F)F)c3)n(Cc3ccc(C(F)(F)F)cc3)c12)C1CCC1 [Example 2.38, 6-{[(1R)-1-cyclobutylethyl]amino}-7-[4-(trifluoromethyl)benzyl]-8-[3-(trifluoromethyl)phenyl]-7H-purine-2-carboxylic acid] | 0.0112 |
| Cc1cccc(C)c1-c1nc2nc(C(=O)O)nc(N[C@H](C)C3CC3)c2n1Cc1ccc(C(F)(F)F)cc1 [Example 2.62, 6-{[(1R)-1-cyclopropylethyl]amino}-8-(2,6-dimethylphenyl)-7-[4-(trifluoromethyl)benzyl]-7H-purine-2-carboxylic acid] | 0.0656 |
| COc1cccc(-c2nc3nc(C(=O)O)nc(N[C@H](C)C4CC4)c3n2Cc2ccc(C(F)(F)F)cc2)c1 [Example 2.14, 6-{[(1R)-1-cyclopropylethyl]amino}-8-(3-methoxyphenyl)-7-[4-(trifluoromethyl)benzyl]-7H-purine-2-carboxylic acid] | 0.339 |
| C[C@@H](Nc1nc(C(=O)O)nc2nc(-c3ccc(F)c(Cl)c3)n(Cc3ccc(C(F)(F)F)cc3)c12)C1CCC1 [Example 2.61, 8-(3-chloro-4-fluorophenyl)-6-{ [(1R)-1-cyclobutylethyl]amino}-7-[4-(trifluoromethyl)benzyl]-7H-purine-2-carboxylic acid] | 0.0227 |
| C[C@@H](Nc1nc(C(=O)O)nc2nc(Cc3ccccc3)n(Cc3ccc(Cl)cc3)c12)C1CC1 [Example 2.43, 8-benzyl-7-(4-chlorobenzyl)-6-{ [(1R)-1-cyclopropylethyl]amino}-7H-purine-2-carboxylic acid] | 0.0281 |
| C[C@@H](Nc1nc(C(=O)O)nc2nc(-c3ccc(C(F)(F)F)cc3)n(Cc3ccc(C(F)(F)F)cc3)c12)C1CC1 [Example 2.20, 6-{[(1R)-1-cyclopropylethyl]amino}-7-[4-(trifluoromethyl)benzyl]-8-[4-(trifluoromethyl)phenyl]-7H-purine-2-carboxylic acid] | 1.41 |

same assay, conditions: Table 5

| IC50 [µM] | Structure (SMILES) |
| --- | --- |
| 0.119 | Cc1cccc(-c2nc3nc(C(=O)O)nc(N[C@H](C)C4CC4)c3n2Cc2ccc(C(F)(F)F)c(F)c2)c1 [Example 5.9, 6-{[(1R)-1-cyclopropylethyl]amino}-7-[3-fluoro-4-(trifluoromethyl)benzyl]-8-(3-methylphenyl)-7H-purine-2-carboxylic acid] |
